What all share (experiment): In vitro competitive activity-based protein profiling (Table 2, % inhibition at 1 μM)
Holding throughout (format): biochemical

For one assay, the target named is T1, ABHD6 (Mus musculus, UniProt Q8R2Y0).
T1 sequence (Q8R2Y0 1-336): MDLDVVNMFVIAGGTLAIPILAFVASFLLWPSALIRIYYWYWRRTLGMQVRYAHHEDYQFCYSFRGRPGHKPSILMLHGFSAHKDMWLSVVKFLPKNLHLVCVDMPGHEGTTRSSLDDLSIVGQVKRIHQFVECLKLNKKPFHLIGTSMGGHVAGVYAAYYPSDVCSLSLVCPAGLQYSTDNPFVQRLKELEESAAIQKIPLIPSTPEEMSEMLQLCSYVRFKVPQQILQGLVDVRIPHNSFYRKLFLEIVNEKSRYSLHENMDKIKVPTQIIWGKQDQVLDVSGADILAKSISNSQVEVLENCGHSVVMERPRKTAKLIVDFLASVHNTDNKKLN
The note with it: read-out: % Inhibition at 1 μM ABHD6. The protocol: (§1) After 30 min, FP—Rh (1.0 μL, 50 μM in DMSO) was added and the mixture was incubated for another 30 min at 37° C. Reactions were quenched with SDS loading buffer (50 μL-4×) and run on SDS-PAGE. Following gel imaging, serine hydrolase activity was determined by measuring fluorescent intensity of gel bands corresponding to MAGL, ABHD6 and FAAH using ImageJ 1.43 u software.
(§2) hMAGL was expressed in HEK293T cells according to previously reported methods (see Niphakis, Long, and Blankman, J. L., et al. (2007) Chem. Biol. 14:1347-1356). Cell lysates were diluted with mock proteomes for use in competitive ABPP experiments.

In another assay the target is T2, FAAH (Mus musculus, UniProt O08914).
T2 sequence (O08914 1-579): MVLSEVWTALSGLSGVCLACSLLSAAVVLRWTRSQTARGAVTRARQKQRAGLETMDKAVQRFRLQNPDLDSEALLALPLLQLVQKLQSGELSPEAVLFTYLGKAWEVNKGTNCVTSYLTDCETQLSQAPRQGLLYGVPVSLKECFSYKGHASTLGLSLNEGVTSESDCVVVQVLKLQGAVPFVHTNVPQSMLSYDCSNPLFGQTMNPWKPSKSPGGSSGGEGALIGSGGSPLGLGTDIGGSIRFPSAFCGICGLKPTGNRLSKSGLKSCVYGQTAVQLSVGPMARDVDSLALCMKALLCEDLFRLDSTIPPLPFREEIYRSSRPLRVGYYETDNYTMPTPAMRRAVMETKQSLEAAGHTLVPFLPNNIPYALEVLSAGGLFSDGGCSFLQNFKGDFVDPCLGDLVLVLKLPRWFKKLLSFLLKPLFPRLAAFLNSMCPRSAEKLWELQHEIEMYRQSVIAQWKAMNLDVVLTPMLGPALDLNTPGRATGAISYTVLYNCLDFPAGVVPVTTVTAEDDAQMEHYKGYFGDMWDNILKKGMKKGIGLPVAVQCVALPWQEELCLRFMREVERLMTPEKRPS
The note with it: read-out: % Inhibition at 1 μM FAAH. Here is the method: as §1, §2

Another assay deals with T3, MAGL (Mus musculus, UniProt O35678).
T3 sequence (O35678 1-303): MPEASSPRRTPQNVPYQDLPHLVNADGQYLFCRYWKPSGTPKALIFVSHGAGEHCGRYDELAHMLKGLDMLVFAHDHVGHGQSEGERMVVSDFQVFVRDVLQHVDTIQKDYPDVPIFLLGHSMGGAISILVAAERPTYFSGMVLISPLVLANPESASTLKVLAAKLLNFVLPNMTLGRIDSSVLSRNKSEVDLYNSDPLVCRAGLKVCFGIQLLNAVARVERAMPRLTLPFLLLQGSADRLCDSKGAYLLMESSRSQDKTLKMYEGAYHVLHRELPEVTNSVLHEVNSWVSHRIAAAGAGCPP
The note with it: read-out: % Inhibition at 1 μM MAGL. Here is the method: After 30 min, FP—Rh (1.0 μL, 50 μM in DMSO) was added and the mixture was incubated for another 30 min at 37° C. Reactions were quenched with SDS loading buffer (50 μL-4×) and run on SDS-PAGE.
Cell lysates were diluted with mock proteomes for use in competitive ABPP experiments.

The term inhibition denotes the relative decrease from the control value, in per cent.

On to `CC(=O)N1CCN(c2ccc(CN3CC4CN(C(=O)ON5C(=O)CCC5=O)CC4C3)c(Cl)c2)CC1` (stereo not drawn) [Example 103, 2,5-Dioxopyrrolidin-1-yl 5-[[4-(4-acetylpiperazin-1-yl)-2-chlorophenyl]methyl]-octahydropyrrolo[3,4-c]pyrrole-2-carboxylate], for which the inhibition at 1 µM on ABHD6, on FAAH and on MAGL was less than 25% each time.
Turning to `CC(=O)N1CCN(c2cccc(CN3CC4CN(C(=O)ON5C(=O)CCC5=O)CC4C3)c2C)CC1` (stereo not drawn) [Example 143, 2,5-dioxopyrrolidin-1-yl 5-[[3-(4-acetylpiperazin-1-yl)-2-methylphenyl]methyl]-octahydropyrrolo[3,4-c]pyrrole-2-carboxylate], the inhibition at 1 µM at ABHD6, at FAAH and at MAGL was less than 25% in each case.
Consider `CC(=O)NC1CCN(c2cccc(CN3CC4CN(C(=O)ON5C(=O)CCC5=O)CC4C3)c2C)CC1` (stereo not drawn) [Example 142, 2,5-dioxopyrrolidin-1-yl 5-[[3-(4-acetamidopiperidin-1-yl)-2-methylphenyl]methyl]-octahydropyrrolo[3,4-c]pyrrole-2-carboxylate], for which the inhibition at 1 µM at ABHD6, on FAAH and at MAGL was less than 25% throughout.
Turning to `CC(C)c1ccc(CN2CC3CN(C(=O)ON4C(=O)CCC4=O)CC3C2)c(N2CCOCC2)c1` (stereo not drawn) [Example 97, 2,5-Dioxopyrrolidin-1-yl 5-[[2-(morpholin-4-yl)-4-(propan-2-yl)phenyl]methyl]-octahydropyrrolo[3,4-c]pyrrole-2-carboxylate], the inhibition at 1 µM on ABHD6, on FAAH and on MAGL was less than 25% throughout.
As to `CC(C)c1cc(CN2CC3CN(C(=O)ON4C(=O)CCC4=O)CC3C2)n(C2CCCCC2)n1` (stereo not drawn) [Example 123, 2,5-Dioxopyrrolidin-1-yl 5-[[1-cyclohexyl-3-(propan-2-yl)-1H-pyrazol-5-yl]methyl]-octahydropyrrolo[3,4-c]pyrrole-2-carboxylate], the figures for the inhibition at 1 µM on ABHD6, at FAAH and at MAGL were more than 75%, less than 25% and 25 to 75%, respectively.
`CC(C)n1cc(CN2CC3CN(C(=O)ON4C(=O)CCC4=O)CC3C2)c(-c2ccccc2Cl)n1` (stereo not drawn) [Example 118, 2,5-Dioxopyrrolidin-1-yl 5-[[3-(2-chlorophenyl)-1-(propan-2-yl)-1H-pyrazol-4-yl]methyl]-octahydropyrrolo[3,4-c]pyrrole-2-carboxylate]: the values for the inhibition at 1 µM at ABHD6, at FAAH and at MAGL were 25 to 75%, less than 25% and 25 to 75%, respectively.
In the case of `CC1COCCN1c1ccc(CN2CC3CN(C(=O)ON4C(=O)CCC4=O)CC3C2)c(F)c1` (stereo not drawn) [Example 100, 2,5-Dioxopyrrolidin-1-yl 5-[[2-fluoro-4-(3-methylmorpholin-4-yl)phenyl]methyl]-octahydropyrrolo[3,4-c]pyrrole-2-carboxylate], the inhibition at 1 µM was less than 25% at ABHD6, less than 25% at FAAH and 25 to 75% at MAGL.
Take `CC(=O)N1CCC(n2nc(C)cc2CN2CC3CN(C(=O)ON4C(=O)CCC4=O)CC3C2)CC1` (stereo not drawn) [Example 122, 2,5-Dioxopyrrolidin-1-yl 5-[[1-(1-acetylpiperidin-4-yl)-3-methyl-1H-pyrazol-5-yl]methyl]-octahydropyrrolo[3,4-c]pyrrole-2-carboxylate]: the inhibition at 1 µM on ABHD6, on FAAH and at MAGL was less than 25% throughout.
Consider `Cc1c(CN2CC3CN(C(=O)ON4C(=O)CCC4=O)CC3C2)cccc1N1CCC(NS(C)(=O)=O)CC1` (stereo not drawn) [Example 140, 2,5-dioxopyrrolidin-1-yl 5-[[3-(4-methanesulfonamidopiperidin-1-yl)-2-methylphenyl]methyl]-octahydropyrrolo[3,4-c]pyrrole-2-carboxylate], for which the values for the inhibition at 1 µM on ABHD6, on FAAH and at MAGL were less than 25%, less than 25% and 25 to 75%, respectively.
Take `CC(=O)N1CCN(c2cc(Cl)ccc2CN2CC3CN(C(=O)ON4C(=O)CCC4=O)CC3C2)CC1` (stereo not drawn) [Example 96, 2,5-Dioxopyrrolidin-1-yl 5-[[2-(4-acetylpiperazin-1-yl)-4-chlorophenyl]methyl]-octahydropyrrolo[3,4-c]pyrrole-2-carboxylate]: the inhibition at 1 µM at ABHD6, at FAAH and on MAGL was less than 25% throughout.
As for `O=C(ON1C(=O)CCC1=O)N1CC2CN(Cc3ccc(C(=O)N4CCOCC4)cc3Cl)CC2C1` (stereo not drawn) [Example 163, 2,5-dioxopyrrolidin-1-yl 5-(2-chloro-4-(morpholine-4-carbonyl)benzyl)-hexahydropyrrolo[3,4-c]pyrrole-2(1H)-carboxylate], the inhibition at 1 µM on ABHD6, at FAAH and on MAGL was less than 25% each time.
`Cc1c(CN2CC3CN(C(=O)ON4C(=O)CCC4=O)CC3C2)cccc1N1CCN(S(C)(=O)=O)CC1` (stereo not drawn) [Example 141, 2,5-dioxopyrrolidin-1-yl 5-[[3-(4-methanesulfonylpiperazin-1-yl)-2-methylphenyl]methyl]-octahydropyrrolo[3,4-c]pyrrole-2-carboxylate]: the results for the inhibition at 1 µM at ABHD6, on FAAH and at MAGL were less than 25%, less than 25% and 25 to 75%, respectively.
Consider `Cc1cccc(CN2CC3CN(C(=O)ON4C(=O)CCC4=O)CC3C2)c1N1CCN(C)CC1` (stereo not drawn) [Example 138, 2,5-dioxopyrrolidin-1-yl 5-[[3-methyl-2-(4-methylpiperazin-1-yl)phenyl]methyl]-octahydropyrrolo[3,4-c]pyrrole-2-carboxylate], for which the inhibition at 1 µM at ABHD6, on FAAH and on MAGL was less than 25% each time.
`O=C(ON1C(=O)CCC1=O)N1CC2CN(Cc3ccc(F)cc3N3CCOCC3)CC2C1` (stereo not drawn) [Example 89, 2,5-Dioxopyrrolidin-1-yl 5-[[4-fluoro-2-(morpholin-4-yl)phenyl]methyl]-octahydropyrrolo[3,4-c]pyrrole-2-carboxylate]: the inhibition at 1 µM on ABHD6, on FAAH and on MAGL was less than 25% each time.
For `O=C(ON1C(=O)CCC1=O)N1CC2CN(Cc3ccc(Cl)cc3N3CCC(C(=O)N4CCCC4)CC3)CC2C1` (stereo not drawn) [Example 111, 2,5-Dioxopyrrolidin-1-yl 5-[(4-chloro-2-[4-[(pyrrolidin-1-yl)carbonyl]piperidin-1-yl]phenyl)methyl]-octahydropyrrolo[3,4-c]pyrrole-2-carboxylate], the inhibition at 1 µM at ABHD6 is less than 25%; on FAAH it was less than 25%; on MAGL, 25 to 75%.
For the compound `Cc1cc(CN2CC3CN(C(=O)ON4C(=O)CCC4=O)CC3C2)n(C(C)C)n1` (stereo not drawn) [Example 121, 2,5-Dioxopyrrolidin-1-yl 5-[[3-methyl-1-(propan-2-yl)-1H-pyrazol-5-yl]methyl]-octahydropyrrolo[3,4-c]pyrrole-2-carboxylate], the inhibition at 1 µM at ABHD6, at FAAH and at MAGL was less than 25% throughout.
Take `O=C(ON1C(=O)CCC1=O)N1CC2CN(Cc3ccc(C(=O)N4CCCCC4)cc3Cl)CC2C1` (stereo not drawn) [Example 161, 2,5-dioxopyrrolidin-1-yl 5-([2-chloro-4-[(piperidin-1-yl)carbonyl]phenyl]methyl)-octahydropyrrolo[3,4-c]pyrrole-2-carboxylate]: the inhibition at 1 µM on ABHD6, at FAAH and at MAGL was 25 to 75% in each case.

Values taken from patent US9828379B2 (priority 2013, dated 2017).
